Source: the supplement of paper PMC10307832

Legend:
Assay in all cases: relative viability (nuclei count vs DMSO), 5 days (fraction); higher = more cells survive
[1] = compound: COc1cc2nc(N3CCCN(C)CC3)nc(NC3CCN(Cc4ccccc4)CC3)c2cc1OC + CC1(C)CCC(c2ccc(Cl)cc2)=C(CN2CCN(c3ccc(C(=O)NS(=O)(=O)c4ccc(N[C@H](CCN5CCOCC5)CSc5ccccc5)c(S(=O)(=O)C(F)(F)F)c4)cc3)CC2)C1 [Navitoclax] (partner 0.5 µM)
Procedure, shortened: (§1)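 A single step with final 0.05% Triton X-100, 1% formaldehyde and 1 ug/ml Hoechst fixed the cells and stained nuclei 5 days after treatment. Lung cancer cell lines in 1536-well plates had been treated by pin tool the day after seeding with one drug alone or a fixed anchor-drug dose plus five library-drug doses (not always all listed) in √10 steps, and nuclei were counted on 4× images. Relative viability is the ratio of nuclei in treated wells to nuclei in vehicle wells, taken as the median of duplicate plates.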

[2] = compound: COc1cc2nc(N3CCCN(C)CC3)nc(NC3CCN(Cc4ccccc4)CC3)c2cc1OC + CS(=O)(=O)CCNCc1ccc(-c2ccc3ncnc(Nc4ccc(OCc5cccc(F)c5)c(Cl)c4)c3c2)o1 [Lapatinib] (partner 2 µM)
Procedure, shortened: as §1

AZD6482 + Luminespib = compound: Cc1cc([C@@H](C)Nc2ccccc2C(=O)O)c2nc(N3CCOCC3)cc(=O)n2c1 [AZD6482] + CCNC(=O)c1noc(-c2cc(C(C)C)c(O)cc2O)c1-c1ccc(CN2CCOCC2)cc1 [Luminespib] (partner 0.01 µM)
Procedure, shortened: as §1

AZD6482 + Dasatinib = compound: Cc1cc([C@@H](C)Nc2ccccc2C(=O)O)c2nc(N3CCOCC3)cc(=O)n2c1 [AZD6482] + Cc1nc(Nc2ncc(C(=O)Nc3c(C)cccc3Cl)s2)cc(N2CCN(CCO)CC2)n1 [Dasatinib] (partner 0.075 µM)
Procedure, shortened: as §1

| Cell Line | relative viability ([1]; first compound 0.2 µM) | relative viability ([1]; first compound 0.6325 µM) | relative viability ([1]; first compound 2 µM) | relative viability ([1]; first compound 6.325 µM) | relative viability ([2]; first compound 0.2 µM) | relative viability ([2]; first compound 0.6325 µM) | relative viability ([2]; first compound 2 µM) | relative viability ([2]; first compound 6.325 µM) | relative viability (AZD6482 + Luminespib; first compound 0.08 µM) | relative viability (AZD6482 + Luminespib; first compound 0.253 µM) | relative viability (AZD6482 + Luminespib; first compound 0.8 µM) | relative viability (AZD6482 + Luminespib; first compound 2.53 µM) | relative viability (AZD6482 + Luminespib; first compound 8 µM) | relative viability (AZD6482 + Dasatinib; first compound 0.08 µM) | relative viability (AZD6482 + Dasatinib; first compound 0.253 µM) | relative viability (AZD6482 + Dasatinib; first compound 0.8 µM) | relative viability (AZD6482 + Dasatinib; first compound 2.53 µM) | relative viability (AZD6482 + Dasatinib; first compound 8 µM) |
| --- | --- | --- | --- | --- | --- | --- | --- | --- | --- | --- | --- | --- | --- | --- | --- | --- | --- | --- |
| NCI-H1395 | 1.18 | 1.32 | 1.17 | 1.05 | 0.987 | 1.08 | 1.29 | 0.831 | 0.541 | 0.601 | 0.514 | 0.376 | 0.482 | 0.348 | 0.346 | 0.357 | 0.29 | 0.369 |
| 201T | 1.2 | 1.2 | 1.23 | 1.15 | 0.95 | 1.04 | 1.08 | 0.982 | 0.995 | 0.982 | 1.01 | 0.847 | 1.02 | 0.645 | 0.542 | 0.627 | 0.416 | 0.395 |
| NCI-H2170 | 0.707 | 0.577 | 0.494 | 0.582 | 0.253 | 0.28 | 0.254 | 0.272 | 0.712 | 0.508 | 0.697 | 0.485 | 0.521 | 0.482 | 0.424 | 0.585 | 0.544 | 0.486 |
| NCI-H460 | 1.16 | 1.13 | 1.17 | 0.754 | 0.9 | 0.979 | 0.902 | 0.487 | 0.0355 | 0.0327 | 0.0426 | 0.0315 | 0.0378 | 0.414 | 0.404 | 0.562 | 0.241 | 0.215 |
| HCC-15 | 0.725 | 0.749 | 0.765 | 0.487 | 0.888 | 0.789 | 0.824 | 0.765 | 0.425 | 0.229 | 0.275 | 0.239 | 0.43 | 0.566 | 0.545 | 0.594 | 0.385 | 0.598 |
| EPLC-272H | 1.08 | 1.06 | 1.22 | 1.02 | 0.947 | 1.1 | 1.03 | 0.938 | 0.347 | 0.164 | 0.21 | 0.179 | 0.256 | 0.253 | 0.291 | 0.311 | 0.172 | 0.124 |
